According to paper PMC10383849, “Novel Molecular Consortia of Cannabidiol with Nonsteroidal Anti-Inflammatory Drugs Inhibit Emerging Coronaviruses’ Entry” (Pathogens, 2023):
Entries after “also recorded” stand apart in the source; their conditions may differ. Like-named read-outs stand apart in the source and are kept apart here.

Experiments:
[1] = system: VSV-pseudotypes bearing SARS-CoV-2 S protein; assay: microbe, parasite or virus in culture; type: cell-based; conditions: for inhibitory effect on SARS-CoV-2 entry (in words): 1-100 μg/mL; for IC50: Severe acute respiratory syndrome coronavirus 2, HEK-293T, read-out: IC50, SARS-CoV-2 entry
[2] = system: VSV-pseudotypes bearing SARS-CoV-1 S protein; assay: microbe, parasite or virus in culture; type: cell-based; conditions: for inhibitory effect on SARS-CoV-1 virus entry (in words): 1-100 μg/mL
influenza virus = conditions: cited from earlier work
SARS-CoV-2 [3] = conditions: ref 43 (van Breemen et al.); cited from earlier work
[4] = system: influenza virus A/Puerto Rico/8/34; type: cell-based
[5] = system: influenza virus A/Puerto Rico/8/34; type: cell-based; remark: listed apart in the source
SARS-CoV-2 [6] = conditions: lung epithelial cells; ref 41 (Nguyen et al.); cited from earlier work

## C=C(C)C1CCC(C)=CC1c1c(OC(=O)C(C)c2cccc(C(=O)c3ccccc3)c2)cc(CCCCC)cc1OC(=O)C(C)c1cccc(C(=O)c2ccccc2)c1 (centres unmarked) [CBD-K]
[1]
  inhibitory effect on SARS-CoV-2 entry (in words): non-significant decrease in luciferase activity; also recorded: did not significantly affect
[2]
  inhibitory effect on SARS-CoV-1 virus entry (in words): did not find any significant inhibitory effect

## COc1ccc2cc([C@H](C)C(=O)O)ccc2c1 [naproxen]
Influenza virus
  anti-influenza virus activity (in words): broad anti-influenza virus activity

## C=C(C)[C@@H]1CCC(C)=C[C@H]1c1c(O)cc(CCCCC)c(C(=O)O)c1O [CBDA, cannabidiolic acid]
SARS-CoV-2 [3]
  block of SARS-CoV-2 entry into cells (in words): significantly block SARS-CoV-2 entry

## C=C(C)C1CCC(C)=CC1c1c(OC(=O)C(C)c2ccc3cc(OC)ccc3c2)cc(CCCCC)cc1OC(=O)C(C)c1ccc2cc(OC)ccc2c1 (centres unmarked) [CBD-N]
[1]
  fold inhibition of SARS-CoV-2 entry: greater than 10 fold
  inhibitory effect on SARS-CoV-2 entry (in words): significantly inhibited; also recorded: significantly reduced
  IC50: < 1 µg/mL
[4]
  viral copy numbers in the supernatants vs mock: did not find any effect
[2]; 1 μg/mL
  fold reduction in luciferase activity, SARS-CoV-1: approximately 2 fold
[2]; 50 μg/mL
  fold decrease in luciferase activity, SARS-CoV-1: greater than 10 fold
[2]; 100 μg/mL
  fold decrease in luciferase activity, SARS-CoV-1: greater than 10 fold
[2]
  inhibitory effect on SARS-CoV-1 virus entry (in words): significant reduction; also recorded: significant inhibitory activity
[2]; Severe acute respiratory syndrome coronavirus, HEK-293T, read-out: IC50, SARS-CoV-1 virus entry
  IC50: < 1 µg/mL
[5]
  viral copy numbers in the supernatants vs mock: did not find any effect

## CCCCCc1cc(O)c(C/C=C(\C)CCC=C(C)C)c(O)c1C(=O)O [CBGA, cannabigerolic acid]
SARS-CoV-2 [3]
  block of SARS-CoV-2 entry into cells (in words): significantly block SARS-CoV-2 entry

## C=C(C)C1CCC(C)=CC1c1c(OC(=O)C(C)c2ccc(CC(C)C)cc2)cc(CCCCC)cc1OC(=O)C(C)c1ccc(CC(C)C)cc1 (centres unmarked) [CBD-I]
[1]
  inhibitory effect on SARS-CoV-2 entry (in words): significantly inhibited; also recorded: significantly reduced
  IC50: < 1 µg/mL
[2]
  inhibitory effect on SARS-CoV-1 virus entry (in words): did not find any significant inhibitory effect

## C=C(C)[C@@H]1CCC(CO)=C[C@H]1c1c(O)cc(CCCCC)cc1O [7-OH-CBD]
SARS-CoV-2 [6]
  inhibition of SARS-CoV-2 replication (in words): inhibit SARS-CoV-2 replication

## C=C(C)[C@@H]1CCC(C)=C[C@H]1c1c(O)cc(CCCCC)cc1O [CBD, cannabidiol]
SARS-CoV-2 [6]
  inhibition of SARS-CoV-2 replication (in words): inhibit SARS-CoV-2 replication
